Laboratory results: PubChem BioAssay (NCI)
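Dose response: 5 concentrations. Exposure: 48 h. Format: 96-well plates. Endpoint: linear interpolation; highest concentration if not reached. The concentration for 50% growth inhibition is given as GI50. TGI is the concentration that stops growth completely.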

Experiments:
Assay in all cases: growth of human tumour cells (NCI), 48 h
[1] = tested on: 786-0 renal
[2] = tested on: A498 renal
[3] = tested on: A549 NSCLC
[4] = tested on: ACHN renal
[5] = tested on: BT-549 breast
[6] = tested on: CAKI-1 renal
[7] = tested on: CCRF-CEM leukemia
[8] = tested on: COLO 205 colon
[9] = tested on: DU-145 prostate
[10] = tested on: EKVX NSCLC
[11] = tested on: HCC-2998 colon
[12] = tested on: HCT-116 colon
[13] = tested on: HCT-15 colon
[14] = tested on: HL-60(TB) leukemia
[15] = tested on: HOP-62 NSCLC
[16] = tested on: HOP-92 NSCLC
[17] = tested on: HS 578T breast
[18] = tested on: HT29 colon
[19] = tested on: IGROV1 ovarian
[20] = tested on: K-562 leukemia
[21] = tested on: KM12 colon
[22] = tested on: LOX IMVI melanoma
[23] = tested on: M14 melanoma
[24] = tested on: MALME-3M melanoma
[25] = tested on: MCF7 breast
[26] = tested on: MDA-MB-231 breast
[27] = tested on: MDA-MB-435
[28] = tested on: MOLT-4 leukemia
[29] = tested on: NCI-H226 lung
[30] = tested on: NCI-H23 lung
[31] = tested on: NCI-H460 lung
[32] = tested on: NCI-H522 lung
[33] = tested on: NCI/ADR-RES ovarian
[34] = tested on: OVCAR-3 ovarian
[35] = tested on: OVCAR-5 ovarian
[36] = tested on: OVCAR-8 ovarian
[37] = tested on: PC-3 prostate
[38] = tested on: RPMI-8226 leukemia
[39] = tested on: RXF 393 renal
[40] = tested on: SF-268 CNS
[41] = tested on: SF-295 CNS
[42] = tested on: SF-539 CNS
[43] = tested on: SK-MEL-2 melanoma
[44] = tested on: SK-MEL-28 melanoma
[45] = tested on: SK-MEL-5 melanoma
[46] = tested on: SK-OV-3 ovarian
[47] = tested on: SN12C renal
[48] = tested on: SNB-19 CNS
[49] = tested on: SNB-75 CNS
[50] = tested on: SR leukemia
[51] = tested on: SW-620 colon
[52] = tested on: T-47D breast
[53] = tested on: TK-10 renal
[54] = tested on: U251 CNS
[55] = tested on: UACC-257 melanoma
[56] = tested on: UACC-62 melanoma
[57] = tested on: UO-31 renal

`Cc1csc(/C=C/C(=O)c2nnn(-c3ccnc4c(C(F)(F)F)cccc34)c2C)c1` gave a GI50 [1] greater than 100 µM, a TGI [1] greater than 100 µM and a GI50 [2] greater than 100 µM. The TGI [2] was greater than 100 µM, the GI50 [3] was 39.7 µM and the TGI [3] was greater than 100 µM. It also gave a GI50 [4] greater than 100 µM, a TGI [4] greater than 100 µM and a GI50 [5] greater than 100 µM. The TGI [5] was greater than 100 µM, the GI50 [6] was 42.4 µM and the TGI [6] was greater than 100 µM. It also gave a GI50 [7] of 21.9 µM, a TGI [7] greater than 100 µM and a GI50 [8] of 41.3 µM. It also gave a TGI [8] greater than 100 µM, a GI50 [9] greater than 100 µM and a TGI [9] greater than 100 µM. It also gave a GI50 [10] of 69.3 µM, a TGI [10] greater than 100 µM and a GI50 [11] of 43.7 µM. The TGI [11] was greater than 100 µM, the GI50 [12] was 39.9 µM and the TGI [12] was greater than 100 µM. The GI50 [13] was 57.5 µM, the TGI [13] was greater than 100 µM and the GI50 [14] was 29.7 µM. It also gave a TGI [14] greater than 100 µM, a GI50 [15] greater than 100 µM and a TGI [15] greater than 100 µM. For the same molecule, the GI50 [16] was 90.2 µM, the TGI [16] was greater than 100 µM and the GI50 [17] was greater than 100 µM. For the same molecule, the TGI [17] was greater than 100 µM, the GI50 [18] was 27 µM and the TGI [18] was greater than 100 µM. The GI50 [19] was greater than 100 µM, the TGI [19] was greater than 100 µM and the GI50 [20] was 23 µM. For the same molecule, the TGI [20] was greater than 100 µM, the GI50 [21] was 52.7 µM and the TGI [21] was greater than 100 µM. It also gave a GI50 [22] of 49.1 µM, a TGI [22] greater than 100 µM and a GI50 [23] greater than 100 µM. The TGI [23] was greater than 100 µM, the GI50 [24] was greater than 100 µM and the TGI [24] was greater than 100 µM. The GI50 [25] was greater than 100 µM, the TGI [25] was greater than 100 µM and the GI50 [26] was 29.2 µM. The TGI [26] was greater than 100 µM, the GI50 [27] was 56.9 µM and the TGI [27] was greater than 100 µM. For the same molecule, the GI50 [28] was 22.2 µM, the TGI [28] was 66.9 µM and the GI50 [29] was 53.8 µM. It also gave a TGI [29] greater than 100 µM, a GI50 [30] of 48.9 µM and a TGI [30] greater than 100 µM. For the same molecule, the GI50 [31] was 43.5 µM, the TGI [31] was greater than 100 µM and the GI50 [32] was 26.4 µM. The TGI [32] was greater than 100 µM, the GI50 [33] was 47.7 µM and the TGI [33] was greater than 100 µM. It also gave a GI50 [34] greater than 100 µM, a TGI [34] greater than 100 µM and a GI50 [35] greater than 100 µM. It also gave a TGI [35] greater than 100 µM, a GI50 [36] greater than 100 µM and a TGI [36] greater than 100 µM. The GI50 [37] was 29.7 µM, the TGI [37] was greater than 100 µM and the GI50 [38] was 23.6 µM. It also gave a TGI [38] greater than 100 µM, a GI50 [39] greater than 100 µM and a TGI [39] greater than 100 µM. For the same molecule, the GI50 [40] was 25.8 µM, the TGI [40] was greater than 100 µM and the GI50 [41] was greater than 100 µM. For the same molecule, the TGI [41] was greater than 100 µM, the GI50 [42] was greater than 100 µM and the TGI [42] was greater than 100 µM. For the same molecule, the GI50 [43] was greater than 100 µM, the TGI [43] was greater than 100 µM and the GI50 [44] was 71.1 µM. For the same molecule, the TGI [44] was greater than 100 µM, the GI50 [45] was 17.9 µM and the TGI [45] was 57 µM. The GI50 [46] was 89.1 µM, the TGI [46] was greater than 100 µM and the GI50 [47] was 25 µM. For the same molecule, the TGI [47] was greater than 100 µM, the GI50 [48] was 72.8 µM and the TGI [48] was greater than 100 µM. For the same molecule, the GI50 [49] was 27.3 µM, the TGI [49] was 99.4 µM and the GI50 [50] was 23 µM. For the same molecule, the TGI [50] was greater than 100 µM, the GI50 [51] was greater than 100 µM and the TGI [51] was greater than 100 µM. It also gave a GI50 [52] of 21.1 µM, a TGI [52] greater than 100 µM and a GI50 [53] of 87.1 µM. It also gave a TGI [53] greater than 100 µM, a GI50 [54] of 39.2 µM and a TGI [54] greater than 100 µM. For the same molecule, the GI50 [55] was 13.7 µM, the TGI [55] was 60.9 µM and the GI50 [56] was 62.2 µM. It also gave a TGI [56] greater than 100 µM, a GI50 [57] of 94.4 µM and a TGI [57] greater than 100 µM.
